These results are taken from patent publication EP4631940A1, “COMPOUND TARGETING PAN-KRAS PROTEIN DEGRADATION AGENT AND USE THEREOF” (Betta Pharmaceuticals Co., Ltd., priority 2022, dated 2024).

One assay deals with AGS. In words: Cell proliferation experiment (CellTiter-Glo). Type of assay: cell-based. The settings on record: read-out: IC50(nM) AGS.
The target in assay [1] is T1, KRAS G12D (Homo sapiens, UniProt P01116, G12D).
Assay [2] has as its target T1, KRAS G12D. As to the kind of experiment: cell-based. The settings on record: AGS.
The next assay has as its system SW620. In words: Cell proliferation experiment (CellTiter-Glo). Type of assay: cell-based. The settings on record: read-out: IC50(nM) SW620. (In general: ATP-based viability assays read luminescence as a measure of living cells.)
[3] abbreviates: AGS, KRAS mutation type G12D, 96 h incubation.
Setting [4] is: SW620, KRAS mutation type G12V, 96 h incubation.

Like-named read-outs stand apart in the source and are kept apart here.

One may read the IC50 as the midpoint of a concentration-inhibition curve.

For `CCc1c(F)ccc2cc(O)cc(-c3ncc4c(N5CCC[C@@](C)(O)C5)nc(OCCN5CCC(CCOc6cc([C@H](C(=O)N7C[C@H](O)C[C@H]7C(=O)N[C@@H](C)c7ccc(-c8scnc8C)cc7)C(C)C)on6)CC5)nc4c3F)c12` [Compound 79], the 50% inhibitory concentration (IC50) in the assay with AGS (Homo sapiens, AGS, 96 h) amounted to 44 nM. Also, the DC50 at KRAS G12D [1] was determined as 44 nM. This molecule had a Dmax on KRAS G12D [2] of 95%.
As to `CCc1c(F)ccc2cc(O)cc(-c3ncc4c(N5CCC[C@@](C)(O)C5)nc(OCC5(CN6CCN(c7cc([C@H](C(=O)N8C[C@H](O)C[C@H]8C(=O)N[C@@H](C)c8ccc(-c9scnc9C)cc8)C(C)C)on7)CC6)CC5)nc4c3F)c12` [Compound 112], the half-inhibitory concentration (IC50) in the assay on AGS (Homo sapiens, AGS, 96 h) is 57 nM. This molecule also registered a DC50 on KRAS G12D [1] of 5 nM. Besides, on KRAS G12D [2], the Dmax came to 95%.
The like results for `CCc1c(F)ccc2cc(O)cc(-c3ncc4c(N5CCC[C@@](C)(O)C5)nc(OCC5(CN6CCN(CC78CC(c9cn([C@H](C(=O)N%10C[C@H](O)C[C@H]%10C(=O)N[C@@H](C)c%10ccc(-c%11scnc%11C)cc%10)C(C)C)nn9)(C7)C8)CC6)CC5)nc4c3F)c12` [Compound 148] were, in that order, 15 nM, 13 nM and 95%.
With `CCc1c(F)ccc2cc(O)cc(-c3ncc4c(N5CCC[C@@](C)(O)C5)nc(OCC5(CN6CCN(Cc7cn([C@H](C(=O)N8C[C@H](O)C[C@H]8C(=O)N[C@@H](C)c8ccc(-c9scnc9C)cc8)C(C)C)nn7)CC6)CC5)nc4c3F)c12` [Compound 132], in the assay with AGS (Homo sapiens, AGS, 96 h), the IC50 was determined as 25 nM. The DC50 at KRAS G12D [1] came out at 19 nM. Moreover, the Dmax on KRAS G12D [2] is 95%.
The corresponding values for `CCc1c(F)ccc2cc(O)cc(-c3ncc4c(N5CCC[C@@](C)(O)C5)nc(OCC5(CN6CCN(C7CN(c8cc([C@H](C(=O)N9C[C@H](O)C[C@H]9C(=O)N[C@@H](C)c9ccc(-c%10scnc%10C)cc9)C(C)C)on8)C7)CC6)CC5)nc4c3F)c12` [Compound 156] are 9.6 nM, 9.6 nM and 95%.
For the molecule `CCc1c(F)ccc2cc(O)cc(-c3ncc4c(N5CCC[C@@](C)(O)C5)nc(OCC5(CN6CCC(N7CCC(c8cn([C@H](C(=O)N9C[C@H](O)C[C@H]9C(=O)N[C@@H](C)c9ccc(-c%10scnc%10C)cc9)C(C)C)nn8)CC7)CC6)CC5)nc4c3F)c12` [Compound 137], the IC50 in the assay on AGS (Homo sapiens, AGS, 96 h) was determined as 37 nM. Moreover, on KRAS G12D [1], the DC50 is 37 nM. This molecule displayed a Dmax at KRAS G12D [2] of 95%.
With `CCc1c(F)ccc2cc(O)cc(-c3ncc4c(N5CCC[C@@](C)(O)C5)nc(OC[C@]56CCCN5[C@@H](COc5cnc(-c7cn([C@H](C(=O)N8C[C@H](O)C[C@H]8C(=O)N[C@@H](C)c8ccc(-c9scnc9C)cc8)C(C)C)nn7)cn5)CC6)nc4c3F)c12` [Compound 159], the IC50 in the assay with AGS (Homo sapiens, AGS, 96 h) came to 6.2 nM. For the same molecule, the DC50 at KRAS G12D [1] amounted to 2.3 nM. The molecule also had a Dmax at KRAS G12D [2] of 95%.
The like results for `CCc1c(F)ccc2cc(O)cc(-c3ncc4c(N5CCC[C@@](C)(O)C5)nc(OCC5(CN6CCC(CN7CCN(c8cc([C@H](C(=O)N9C[C@H](O)C[C@H]9C(=O)N[C@@H](C)c9ccc(-c%10scnc%10C)cc9)C(C)C)on8)CC7)CC6)CC5)nc4c3F)c12` [Compound 104] were, in that order, 39 nM, 27 nM and 95%.
Consider `CCc1c(F)ccc2cc(O)cc(-c3ncc4c(N5CCC[C@@](C)(O)C5)nc(OCC5(CN6CC(N7CCN(c8cc([C@H](C(=O)N9C[C@H](O)C[C@H]9C(=O)N[C@@H](C)c9ccc(-c%10scnc%10C)cc9)C(C)C)on8)CC7)C6)CC5)nc4c3F)c12` [Compound 116], for which the IC50 in the assay with AGS (Homo sapiens, AGS, 96 h) stood at 27 nM. Further, the DC50 at KRAS G12D [1] was determined as 30 nM. The molecule also came in with a Dmax at KRAS G12D [2] of 95%.
The like results for `CCc1c(F)ccc2cc(O)cc(-c3ncc4c(N5CCC[C@@](C)(O)C5)nc(OC[C@]56CCCN5[C@@H](COc5ncc(-c7cn([C@H](C(=O)N8C[C@H](O)C[C@H]8C(=O)N[C@@H](C)c8ccc(-c9scnc9C)cc8)C(C)C)nn7)cn5)CC6)nc4c3F)c12` [Compound 158, (2S,4R)-1-((S)-2-(4-(2-(((3R,7aR)-7a-(((7-(8-ethyl-7-fluoro-3-hydroxynaphthalen-1-yl)-8-fluoro-4-((R)-3-hydroxy-3-methylpiperidin-1-yl)pyrido[4,3-d]pyrimidin-2-yl)oxy)methyl)cyclopropyl)hexahydro-1H-pyrrolizin-3-yl)methoxy)pyrimidin-5-yl)-1H-1,2,3-triazol-1-yl)-3-methylbutanoyl)-4-hydroxy-N-(((S)-1-(4-(4-methylthiazol-5-yl)phenyl)ethyl)pyrrolidine-2-carboxamide] were, in that order, 18 nM, 4.1 nM and 95%.
Turning to `CCc1c(F)ccc2cc(O)cc(-c3ncc4c(N5CCC[C@@](C)(O)C5)nc(OCC5(CN6CCC7(CC6)CC(Oc6cc([C@H](C(=O)N8C[C@H](O)C[C@H]8C(=O)N[C@@H](C)c8ccc(-c9scnc9C)cc8)C(C)C)on6)C7)CC5)nc4c3F)c12` [Compound 150], the IC50 with AGS (Homo sapiens, AGS, 96 h) is 11 nM. For the same molecule, on KRAS G12D [1], the DC50 stood at 14 nM. The molecule further showed a Dmax at KRAS G12D [2] of 95%.
As to `CCc1c(F)ccc2cc(O)cc(-c3ncc4c(N5CCC[C@@](C)(O)C5)nc(OCCN5CCC(COc6cc([C@H](C(=O)N7C[C@H](O)C[C@H]7C(=O)N[C@@H](C)c7ccc(-c8scnc8C)cc7)C(C)C)on6)CC5)nc4c3F)c12` [Compound 80], the concentration for half-maximal inhibition (IC50) in the assay with AGS (Homo sapiens, AGS, 96 h) turned out to be 63 nM. Also, on KRAS G12D [1], the DC50 was 40 nM. At KRAS G12D [2], the Dmax was determined as 95%.
The like results for `CCc1c(F)ccc2cc(O)cc(-c3ncc4c(N5CCC[C@@](C)(O)C5)nc(OCC5(CN6CCC(c7cn([C@H](C(=O)N8C[C@H](O)C[C@H]8C(=O)N[C@@H](C)c8ccc(-c9scnc9C)cc8)C(C)C)nn7)CC6)CC5)nc4c3F)c12` [Compound 131, (2S,4R)-1-((S)-2-(4-(1-((((7-(8-ethyl-7-fluoro-3-hydroxynaphthalen-1-yl)-8-fluoro-4-((R)-3-hydroxy-3-methylpiperidin-1-yl)pyrido[4,3-d]pyrimidin-2-yl)oxy)methyl)cyclopropyl)methyl)piperidin-4-yl)-1H-1,2,3-triazol-1-yl)-3-methylbutanoyl)-4-hydroxy-N-(((S)-1-(4-(4-methylthiazol-5-yl)phenyl)ethyl)pyrrolidine-2-carboxamide] were, in that order, 34 nM, 18 nM and 95%.
The corresponding values for `CCc1c(F)ccc2cc(O)cc(-c3ncc4c(N5CCC[C@@](C)(O)C5)nc(OCC5(CN6CCC7(CC6)CCN(c6cc([C@H](C(=O)N8C[C@H](O)C[C@H]8C(=O)N[C@@H](C)c8ccc(-c9scnc9C)cc8)C(C)C)on6)CC7)CC5)nc4c3F)c12` [Compound 155, (2S,4R)-1-((R)-2-(3-(9-((1-((7-(8-ethyl-7-fluoro-3-hydroxynaphthalen-1-yl)-8-fluoro-4-((R)-3-hydroxy-3-methylpiperidin-1-yl)pyrido[4,3-d]pyrimidin-2-yl)oxy)methyl)cyclopropyl)methyl)-3,9-diazaspiro[5.5]nonan-3-yl)isoxazol-5-yl)-3-methylbutanoyl)-4-hydroxy-N-((S)-1-(4-(4-(4-methylthiazol-5-yl)phenyl)ethyl)pyrrolidine-2-carboxamide] are 23 nM, 8.7 nM and 95%.
The corresponding values for `CCc1c(F)ccc2cc(O)cc(-c3ncc4c(N5CCC[C@@](C)(O)C5)nc(OC[C@]56CCCN5[C@@H](COc5ccc(-c7cn([C@H](C(=O)N8C[C@H](O)C[C@H]8C(=O)N[C@@H](C)c8ccc(-c9scnc9C)cc8)C(C)C)nn7)cn5)CC6)nc4c3F)c12` [Compound 157] are 19 nM, 7.7 nM and 95%.
Consider “(7-(8-ethyl-7-fluoro-3-hydroxynaphthalen-1-yl)-8-fluoro-4-(R)-3-hydroxy-3-methylpiperidin-1-y l)pyrido[4,3-d]pyrimidin-2-yl)oxy)methyl)-6-methylenehexahydro-1H-pyrrolizin-3-yl)methyl ((3-(1-((S)-1-(2S,4R)-4-hydroxy-2-(S)-1-(4-methylthiazol-5-yl)phenyl)ethyl)carbamoyl)pyrrolidi n-1-yl)-3-methyl-1-oxobutan-2-yl)-1H-1,2,3-triazol-4-yl)bicyclo[1.1.1]pentan-1-yl)methyl)carba mate [Compound 126]”, for which, in the assay on AGS, the IC50 was 32 nM. Besides, on KRAS G12D [1], the DC50 is 23 nM and the “Dmax (%)” value was 95%. Besides, in the assay with SW620, the half-inhibitory concentration (IC50) is 246 nM.
With `CCc1c(F)ccc2cc(O)cc(-c3ncc4c(N5CCC[C@@](C)(O)C5)nc(OCC5(CN6CCN(C(=O)c7cnc(-c8cn([C@H](C(=O)N9C[C@H](O)C[C@H]9C(=O)N[C@@H](C)c9ccc(-c%10scnc%10C)cc9)C(C)C)nn8)cn7)CC6)CC5)nc4c3F)c12` [Compound 173], the IC50 in the assay on AGS (setting [3]) stood at 6 nM; with SW620 (setting [4]), 35 nM.
With `CCc1c(F)ccc2cc(O)cc(-c3ncc4c(N5CCC[C@@](C)(O)C5)nc(OCC5(CN6CCN(C7CCN(c8cnc(-c9cn([C@H](C(=O)N%10C[C@H](O)C[C@H]%10C(=O)N[C@@H](C)c%10ccc(-c%11scnc%11C)cc%10)C(C)C)nn9)cn8)CC7)CC6)CC5)nc4c3F)c12` [Compound 197], the IC50 in the assay on AGS (setting [3]) is 6.1 nM; with SW620 (setting [4]), 32 nM.
`CCc1c(F)ccc2cc(O)cc(-c3ncc4c(N5CCC[C@@](C)(O)C5)nc(OCC5(CN6CCC(N7CCN(c8cnc(-c9cn([C@H](C(=O)N%10C[C@H](O)C[C@H]%10C(=O)N[C@@H](C)c%10ccc(-c%11scnc%11C)cc%10)C(C)C)nn9)cn8)CC7)CC6)CC5)nc4c3F)c12` [Compound 196, (2S,4R)-1-((S)-2-(4-(5-(4-(1-(((7-(8-ethyl-7-fluoro-3-hydroxynaphthalen-1-yl)-8-fluoro-4-(((R)-3-hydroxy-3-methylpiperidin-1-yl)pyrido[4,3-d]pyrimidin-2-yl)oxy)methyl)cyclopropyl)methyl)piperidin-4-yl)piperazin-1-yl)pyrazin-2-yl)-1H-1,2,3-triazol-1-yl)-3-methylbutanoyl)-4-hydroxy-N-(((S)-1-(4-(4-methylthiazol-5-yl)phenyl)ethyl)pyrrolidine-2-carboxamide]: the half-maximal inhibitory concentration (IC50) with AGS (setting [3]) came out at 4 nM; in the assay on SW620 (setting [4]), 15 nM.
